Results reported in patent US20200360391A1, “Medicinal Composition for Treating Intractable Heart Disease” (Osaka University, priority 2016, published 2020).
“Also recorded” adds a separate entry of the source. Counter-ions that a name gives are not always drawn. Like-named read-outs stand apart in the source and are kept apart here. Marks after values point to notes of the source that are not given here.

Tests used:
[1] = tested on: spontaneous dilated cardiomyopathy (J2N-k) hamster model; test: Spontaneous dilated cardiomyopathy (J2N-k) hamster model, 8-week administration from 20 weeks of age (Tests 1-3): echocardiography, body weight; conditions: for Minimal effective dose (screening 2): mg/kg twice per day, oral preparation
Description: The doses of pharmaceutical products were determined based on the no-observed-adverse-effect levels in a long-term toxicity study using rats. δ-Glycan-deficient spontaneous dilated cardiomyopathy (J2N-k) male hamsters (Japan SLC, Inc.) were delivered at 18 weeks of age. After a 2-week quarantine/acclimation, echocardiography was performed.
Each of the pharmaceutical products (A to K and O) was individually administered twice daily (at an interval of 8 hours or more) by oral gavage, and echocardiography was performed after 4 and 8 weeks (before dissection). Differences from the value before the start of administration (at the time of grouping) (amount of change: Δ) in each group were examined, and the cardiac function (EF value, FS %, etc.) was compared with that in the vehicle group (Group 1). Moreover, the heart was removed […] after the start of administration, and electron microscopy and RNA protein measurement were performed. Specimens for immunopathology were also collected and evaluated.
Each pharmaceutical product was individually suspended in 0.5% CMC-Na (sodium carboxymethylcellulose; Wako Pure Chemical Industries, Ltd.) before use, and administered. […] To Group 1 (control), 0.5% CNC-Na (vehicle) was administered.
Each pharmaceutical product was individually suspended in 0.5% CMC-Na (sodium carboxymethylcellulose; Wako Pure Chemical Industries, Ltd.) before use, and administered. Test substance G was suspended in distilled water before use, and administered.
Reason the doses were set (assuming that the adult body weight was 60 kg, the same amounts as the maximum clinical doses were set) • 1) The clinical dose of C (ozagrel; OZ) was 200 mg twice per day. The dose was thus set to 3.3 mg/kg twice per day. • 2) The clinical dose of D (cilostazol; CS) was 100 mg twice per day. The dose was thus set to 1.7 mg/kg twice per day. • 3) The clinical dose of E (pirfenidone; PF) was 600 mg three times per day, i.e., 1800 mg/day in total. The dose was thus set to 15 mg/kg twice per day. • 4) The clinical dose of G (nintedanib sulfonate; OB) was 150 mg twice per day. The dose was thus set to 2.5 mg/kg twice per day. • 5) The clinical dose of P (carvedilol; CV) was 10 mg twice per day. The dose was thus set to 0.17 mg/kg twice per day. • 6) Preparation 2 (PLGA⋅MS preparation of camostat; B⋅MS): the clinical dose of active substance camostat was 200 mg three times per day, i.e., 600 mg/day in total; thus, intermittent subcutaneous administration at a daily dose of 10 mg/kg once every 4 weeks, twice in total was set. The dose was 1/28 of the total oral dose amount.
The dose volume in oral administration was 5 mL/kg (the amount of liquid to be administered to each animal was calculated based on the most recent body weight), and administered by oral gavage using a polypropylene disposable syringe and a rat stomach tube.
The administration period of each pharmaceutical product was 8 weeks.

rats [2] = conditions: cited from earlier work
rats [3] = test: Repeated oral administration toxicity study in rats (dose-setting basis); conditions: mg/kg twice per day, oral preparation
Description: The dose-setting basis for the doses of the test substances used in pharmacological tests is as described below.

[4] = tested on: rat coronary artery complete ischemia model; test: Model of ischemia (MI) by rat coronary artery complete ligation (Tests 1 and 2): echocardiography, body weight; conditions: MI Test 2, B 150, G 5, I 30, C 10 mg/kg p.o. b.i.d.; for Body weight: B MS 100, C MS 50, I MS 30 mg/kg s.c. single injection, mean; for value of change in E.F. compared with E.F. on Day 1 / value of change in F.S. compared with F.S. on Day 1: B-MS 100, C-MS 50, F-MS 30 mg/kg s.c. single injection, mean ± S.D.
[5] = tested on: spontaneous dilated cardiomyopathy J2N-k baby hamsters; test: J2N-k baby hamsters (Test 4): administration alone or in combination, echocardiography, body weight; type: in vivo, hamster; conditions: for % FS / EF (%) / value of change in E.F. compared with E.F. at 0 W / value of change in F.S. compared with F.S. at 0 W: Test 4, dose O 0.17, C 3.3, E 15, orally twice daily, mean ± S.D.
Description: δ-Glycan-deficient spontaneous dilated cardiomyopathy (J2N-k) male hamsters (Japan SLC, Inc.) were delivered at 4 weeks of age. After a 1-week quarantine/acclimation, echocardiography was performed. The hamsters were grouped by stratified random assignment based on the EF values and the body weights so that each administration group was equalized.
Each test substance was individually administered twice daily (at an interval of 8 hours or more) by oral gavage, and echocardiography was performed 4 and 8 weeks after the start of administration (before dissection). Differences from the value before the start of administration (at the time of grouping) (amount of change: A) in each group were examined, and the cardiac function (EF value, FS %, etc.) was compared with that in the vehicle group (Group 1).
The doses were set according to the dose-setting basis in Test 3, and similarly orally administered twice daily. Effects of administration of combinations of two or three of carvedilol, which is a β-blocker widely used clinically, and ozagrel and/or pirfenidone were examined.

rats [6] = conditions: rats, cited from earlier work
[7] = cited from earlier work; for Cases with side effects (including laboratory test value abnormality): share of cases evaluated for safety
[8] = Test 2, p.o. b.i.d., NOAEL-based dose
[9] = Test 4, p.o. b.i.d., clinical dose
[10] = Test 2, p.o. b.i.d., NOAEL-based dose, listed as lovastatin

Molecule: CCCc1nn(C)c2c(=O)[nH]c(-c3cc(S(=O)(=O)N4CCN(C)CC4)ccc3OCC)nc12 [Compound I, Sildenafil citrate]
- Body weight 0 W ([1]; Test 2, at grouping): 120.4 g
- LVIDd 4 W ([1]; Test 2, p.o. b.i.d.): 7.1 mm
- LVIDd 8 W ([1]; Test 2, p.o. b.i.d.): 7.3 mm
- LVIDs 4 W ([1]; Test 2, p.o. b.i.d.): 5.9 mm
- LVIDs 8 W ([1]; Test 2, p.o. b.i.d.): 6.2 ± mm
- Body weight 2 W [1, 8]: 122.3 g
- Body weight 3 W [1, 8]: 123.7 g
- Body weight 4 W [1, 8]: 125.5 g
- Body weight 5 W [1, 8]: 126.9 g
- Body weight 6 W [1, 8]: 128.9 g
- Minimal effective dose (screening 2) [1]: 0.4 mg/kg
- Lethal dose (rats [2]; intravenous injection in rats): ≥ 10 mg/kg
- Lethal dose (rats [2]; oral administration): ≥ 1000 mg/kg
- Maximum no-observed-adverse-effect level (screening 1) (rats [3]): 30 mg/kg
- Body weight ([4]; 1 Day): 240.3 g
- Body weight ([4]; 7 Day): 237.3 g
- Body weight ([4]; 14 Day): 263.0 g
- value of change in E.F. compared with E.F. on Day 1 ([4]; 14 Day): <−5.1 ± 2.5> %
- value of change in F.S. compared with F.S. on Day 1 ([4]; 14 Day): <−2.8 ± 1.4> %
- Body weight ([4]; 21 Day): 278.3 g
- Body weight ([4]; 29 Day): 297.5 g
- value of change in E.F. compared with E.F. on Day 1 ([4]; 29 Day): <−7.6 ± 4.3> %
- value of change in F.S. compared with F.S. on Day 1 ([4]; 29 Day): <−4.1 ± 2.3> %

Molecule: COc1ccccc1OCCNCC(O)COc1cccc2[nH]c3ccccc3c12 (stereo not shown) [Compound O, Carvedilol]
- Cardiac function (EF, FS %) actual measured value and/or amount of change compared with control, 8 W value ([1]; Test 3, clinical dose): significant cardiac function improvement effect
- Cardiac function (EF, FS %) actual measured value or change rate compared with control, 4 W value ([1]; Test 3, clinical dose): significant cardiac function improvement effect
- Cardiac function improvement effect ([1]; Test 3, clinical dose, summary): cardiac function improvement effect was observed
- Minimal effective dose (screening 2) [1]: 0.17 mg/kg
- Body weight 0 W ([5]; Test 4, at grouping): 71.5 g
- Action on decrease in left ventricular systolic function ([5]; Test 4, clinical doses p.o. b.i.d., 8 weeks): significant suppression action on a decrease in left ventricular systolic function; also recorded: action of significantly suppressing a decrease in left ventricular systolic function
- Body weight 2 W [5, 9]: 84.2 g
- Body weight 4 W [5, 9]: 92.6 g
- Body weight 5 W [5, 9]: 97.8 g
- Body weight 6 W [5, 9]: 101.3 g
- Body weight 7 W [5, 9]: 104.0 g
- Body weight 8 W [5, 9]: 106.1 g
- % FS ([5]; 0 W (start of administration)): 38.8 ± 3.0%
- EF (%) ([5]; 0 W (start of administration)): 76.9 ± 3.4%
- % FS ([5]; 4 W): 34.4 ± 1.8%
- EF (%) ([5]; 4 W): 71.7 ± 2.3%
- value of change in E.F. compared with E.F. at 0 W ([5]; 4 W): <−5.2 ± 2.3> %
- value of change in F.S. compared with F.S. at 0 W ([5]; 4 W): <−4.4 ± 2.1> %
- % FS ([5]; 8 W): 30.1 ± 1.3%
- EF (%) ([5]; 8 W): 65.8 ± 1.9%
- value of change in E.F. compared with E.F. at 0 W ([5]; 8 W): <−11.1 ± 3.8> %
- value of change in F.S. compared with F.S. at 0 W ([5]; 8 W): <−8.7 ± 3.2> %

Molecule: Lovastatin calcium [Compound J]
- Body weight lower than that in the control group ([1]; Test 2, 8 weeks after start of administration, 5 mg/kg b.i.d.): about 10%
- % FS 0 W ([1]; Test 2, at grouping): 17 ± 2%
- Body weight 0 W ([1]; Test 2, at grouping): 122.9 g
- EF 0 W ([1]; Test 2, at grouping): 43 ± 3%
- LVIDd 0 W ([1]; Test 2, at grouping): 6.7 mm
- LVIDs 0 W ([1]; Test 2, at grouping): 5.6 mm
- LVIDd 4 W ([1]; Test 2, p.o. b.i.d.): 7.1 mm
- LVIDd 8 W ([1]; Test 2, p.o. b.i.d.): 7.4 mm
- LVIDs 4 W ([1]; Test 2, p.o. b.i.d.): 6.0 mm
- LVIDs 8 W ([1]; Test 2, p.o. b.i.d.): 6.3 ± mm
- % FS 4 W [1, 8]: 15 ± 1%
- % FS 8 W [1, 8]: 14 ± 1%
- % FS value of change at 4 W compared with 0 W [1, 8]: <−2 ± 1> %
- % FS value of change at 8 W compared with 0 W [1, 8]: <−3 ± 1> %
- Body weight 3 W [1, 8]: 120.8 g
- Body weight 5 W [1, 8]: 120.3 * g
- Body weight 7 W [1, 8]: 118.7 ** g
- Body weight 8 W [1, 8]: 118.0 * g
- EF 4 W [1, 8]: 39 ± 2%
- EF 8 W [1, 8]: 37 ± 2%
- EF value of change at 4 W compared with 0 W [1, 8]: <−4 ± 1> %
- EF value of change at 8 W compared with 0 W [1, 8]: <−6 ± 3> %
- % FS 4 W [1, 10]: not significantly higher
- % FS value of change at 4 W compared with 0 W [1, 10]: significantly higher
- LVIDs 8 W ([1]; Test 2, p.o. b.i.d., listed as lovastatin): significantly lower
- No-observed-adverse-effect level (rats [6]; 1 month): 15 mg/kg
- No-observed-adverse-effect level (rats [6]; 6 months): 2 mg/kg
- No-observed-adverse-effect level (rats [6]; 13 weeks / 3 months): 10 mg/kg
- CK (CPK) elevation cases ([7]; human, in vivo): 1.6%
- Elevated AST (GOT) and/or ALT (GPT) / liver enzyme cases ([7]; human, in vivo): 1.7%
- Muscle pain cases ([7]; human, in vivo): 3.2%
- Cases with side effects (including laboratory test value abnormality) [7]: 18.8%

Molecule: Cn1c(=O)c2[nH]cnc2n(C)c1=O [Compound H, Theophylline]
- LVIDd 4 W ([1]; Test 2, p.o. b.i.d.): 7.0 mm
- LVIDd 8 W ([1]; Test 2, p.o. b.i.d.): 7.3 mm
- LVIDs 4 W ([1]; Test 2, p.o. b.i.d.): 5.9 ± mm
- LVIDs 8 W ([1]; Test 2, p.o. b.i.d.): 6.3 mm
- % FS 4 W [1, 8]: not significantly higher
- % FS value of change at 4 W compared with 0 W [1, 8]: not significantly higher
- Body weight 0 W ([1]; hamster, in vivo): 121.4 g
- Body weight 1 W ([1]; hamster, in vivo, po): 120.2 g
- Body weight 2 W ([1]; hamster, in vivo, po): 120.2 g
- Body weight 3 W ([1]; hamster, in vivo, po): 121.0 g
- Body weight 4 W ([1]; hamster, in vivo, po): 122.4 g
- Body weight 6 W ([1]; hamster, in vivo, po): 122.6 g
- Body weight 8 W ([1]; hamster, in vivo, po): 123.6 g
- Headache (headache/heavy-headedness) cases ([7]; human, in vivo): 2.56%
- Nausea cases (cilostazol: nausea/vomiting) ([7]; human, in vivo): 4.05%
- Palpitations cases ([7]; human, in vivo): 1.17%
- Cases with side effects (including laboratory test value abnormality) [7]: 9.05%
